According to US20260217701A1, “SELECTIVE BET INHIBITORS AND USES THEREOF” (Tay Therapeutics Limited, priority 2022, published 2026):
Marks after values point to notes of the source that are not given here.

Experiments:
BRD4 BD1 = molecular target: T1, BRD4 BD1 (Homo sapiens, UniProt O60885); assay: NanoBRET bromodomain assay, NanoLuc-BRD4-BD1 in HEK293 cells; type: binding
T1 construct: HEK293 cells were transfected using NanoLuc-BRD4-BD1 or NanoLuc-BRD4-BD2 fusion vectors
Method: Exemplary compounds of the disclosure are active against BRD4 BD2 and selective over BRD4 BD1. BRD4 is a representative example of the BET family, as the binding sites of all BET family members are structurally similar. […] IC50s and fold selectivity's are determined as described below and are represented in Table 1.
(§1) Plates were then incubated at 37° C.+5% CO2 incubator for 2 hours.
(§2) Fold Selectivity Calculated (IC50 BD1/IC50 BD2).

BRD4 BD2 = molecular target: T2, BRD4 BD2 (Homo sapiens, UniProt O60885); assay: NanoBRET bromodomain assay, NanoLuc-BRD4-BD2 in HEK293 cells; type: binding; conditions: for Fold Selectivity BRD4 BD1/BD2: IC50 BD1/IC50 BD2, qualitative if an IC50 is at the upper limit
T2 construct: HEK293 cells were transfected using NanoLuc-BRD4-BD1 or NanoLuc-BRD4-BD2 fusion vectors
Method: as §1, §2

[1] = system: experimental autoimmune encephalomyelitis; assay: Experimental autoimmune encephalomyelitis (EAE) model: EAE scores, onset, incidence; type: in vivo, C57BI/6 mice; conditions: FTY720 (Group 5)
Method: (§3) Experimental Method H: EAE in animals treated with a BET inhibitor and vehicle. Animals were assigned to the groups outlined in Table 38.
(§4) Compound A may be formulated as illustrated in Experimental Method A (see Table 2E.). A 40 mg/mL stock solution of Compound A in DMSO was prepared and aliquots stored at −20° C. On each day of preparation an e.g., 0.75 mL aliquot of thawed stock was diluted with an equal volume of DMSO. The remaining vehicle components were added to provide the highest dose and then diluted with vehicle to provide lower doses. A 30 mg/mL stock solution of FTY720 in ethanol was prepared and stored at −20° C. Daily, the stock solution was diluted with room temperature water to a final dosing concentration of 0.6 mg/mL. Formulated Compound A, FTY720 and vehicle were each at room temperature for dosing.
(§5) Female C57BI/6 mice (9 weeks old) were acclimated for seven days prior to study initiation. On Day-1, animals were assigned to groups in a balanced manner to achieve similar average weights across the different groups. Chronic EAE was induced in female C57BI/6 mice following immunization with an emulsion of MOG35-55/CFA on Day 0, followed by an injection of pertussis toxin two hours after the initial immunization. On Day 1, a second injection of pertussis toxin was administered 24 hours after the initial immunization. Mice were injected subcutaneously at two sites on the back with the MOG35-55/CFA emulsion (Hooke Kit™ MOG35-55/CFA Emulsion PTX). The first injection site was located approximately 1 cm caudal of the neckline (upper back), and the second injection site was approximately 2 cm cranial of the base of the tail (lower back). The injection volume was 0.1 mL for each injection. The pertussis toxin was administered at the described times through intraperitoneal injection at a concentration of 85 ng/dose for both injections.
(§6) Body weight was measured three times a week (Monday, Wednesday, and Friday) starting on Day-1. Animals were scored daily for EAE starting on Day 7. In-between scores were assigned when the clinical signs fell between two below defined scores.

EAE study: body weight = type: in vivo, C57BI/6 mice; conditions: for Mean Body Weight / Mean Body Weight (% of Day −1): FTY720 (Group 5)
Method: as §3, §4, §5, §6

Cn1cc(-c2ccccc2)c(-c2cn(C)c(=O)c3[nH]c(-c4cccn(C)c4=O)cc23)cc1=O [Example 1, 6-methyl-2-(1-methyl-2-oxo-1,2-dihydropyridin-3-yl)-4-(1-methyl-2-oxo-5-phenyl-1,2-dihydropyridin-4-yl)-1,6-dihydro-7H-pyrrolo[2,3-c]pyridin-7-one]
IC50 (BRD4 BD1): > 1000 nM
IC50 (BRD4 BD2): 10 to 50 nM
Fold Selectivity BRD4 BD1/BD2 (BRD4 BD2): xxx (Fold >200 and ≤1000)

Cn1cc(-c2cccc(CS(C)(=O)=O)c2)c(-c2cn(C)c(=O)c3[nH]c(-c4cnn(C(F)(F)F)c4)cc23)cc1=O [Example 2, 6-methyl-4-(1-methyl-5-(3-((methylsulfonyl)methyl)phenyl)-2-oxo-1,2-dihydropyridin-4-yl)-2-(1-(trifluoromethyl)-1H-pyrazol-4-yl)-1,6-dihydro-7H-pyrrolo[2,3-c]pyridin-7-one]
IC50 (BRD4 BD1): > 1000 nM
IC50 (BRD4 BD2): 50 to 200 nM
Fold Selectivity BRD4 BD1/BD2 (BRD4 BD2): xx (Fold >50 and ≤200)

CN(C)CCOc1cccc(-c2cn(C)c(=O)cc2-c2cn(C)c(=O)c3[nH]c(-c4cnn(C(F)(F)F)c4)cc23)c1 [Example 3, 4-(5-(3-(2-(dimethylamino)ethoxy)phenyl)-1-methyl-2-oxo-1,2-dihydropyridin-4-yl)-6-methyl-2-(1-(trifluoromethyl)-1H-pyrazol-4-yl)-1,6-dihydro-7H-pyrrolo[2,3-c]pyridin-7-one]
IC50 (BRD4 BD1): > 1000 nM
IC50 (BRD4 BD2): 50 to 200 nM
Fold Selectivity BRD4 BD1/BD2 (BRD4 BD2): xx (Fold >50 and ≤200)

Cn1cc(-c2cccc(CN3CCNCC3)c2)c(-c2cn(C)c(=O)c3[nH]c(-c4cnn(C(F)(F)F)c4)cc23)cc1=O [Example 4, 6-methyl-4-(1-methyl-2-oxo-5-(3-(piperazin-1-ylmethyl)phenyl)-1,2-dihydropyridin-4-yl)-2-(1-(trifluoromethyl)-1H-pyrazol-4-yl)-1,6-dihydro-7H-pyrrolo[2,3-c]pyridin-7-one]
IC50 (BRD4 BD1): > 1000 nM
IC50 (BRD4 BD2): > 1000 nM
Fold Selectivity BRD4 BD1/BD2 (BRD4 BD2): — (Fold ≥0 and ≤2)

Cn1cc(-c2cc(=O)n(C3COC3)cc2-c2ccccc2)c2cc(-c3cnn(C(F)(F)F)c3)[nH]c2c1=O [Example 5, 6-methyl-4-(1-(oxetan-3-yl)-2-oxo-5-phenyl-1,2-dihydropyridin-4-yl)-2-(1-(trifluoromethyl)-1H-pyrazol-4-yl)-1,6-dihydro-7H-pyrrolo[2,3-c]pyridin-7-one]
IC50 (BRD4 BD1): > 1000 nM
IC50 (BRD4 BD2): 10 to 50 nM
Fold Selectivity BRD4 BD1/BD2 (BRD4 BD2): xxx (Fold >200 and ≤1000)

Cn1cc(-c2cccc3c2COC3)c(-c2cn(C)c(=O)c3[nH]c(-c4ccc(F)cc4F)cc23)cc1=O [Example 6, 2-(2,4-difluorophenyl)-4-(5-(1,3-dihydroisobenzofuran-4-yl)-1-methyl-2-oxo-1,2-dihydropyridin-4-yl)-6-methyl-1,6-dihydro-7H-pyrrolo[2,3-c]pyridin-7-one]
IC50 (BRD4 BD1): > 1000 nM
IC50 (BRD4 BD2): < 10 nM
Fold Selectivity BRD4 BD1/BD2 (BRD4 BD2): xxxx (Fold >1000)

COCc1cccc(-c2cn(C)c(=O)cc2-c2cn(C)c(=O)c3[nH]c(-c4cnn(C(F)(F)F)c4)cc23)c1 [Example 7, 4-(5-(3-(methoxymethyl)phenyl)-1-methyl-2-oxo-1,2-dihydropyridin-4-yl)-6-methyl-2-(1-(trifluoromethyl)-1H-pyrazol-4-yl)-1,6-dihydro-7H-pyrrolo[2,3-c]pyridin-7-one]
IC50 (BRD4 BD1): > 1000 nM
IC50 (BRD4 BD2): < 10 nM
Fold Selectivity BRD4 BD1/BD2 (BRD4 BD2): xxxx (Fold >1000)

COCc1ccc(-c2cn(C)c(=O)cc2-c2cn(C)c(=O)c3[nH]c(-c4cnn(C(F)(F)F)c4)cc23)cc1 [Example 8, 4-(5-(4-(methoxymethyl)phenyl)-1-methyl-2-oxo-1,2-dihydropyridin-4-yl)-6-methyl-2-(1-(trifluoromethyl)-1H-pyrazol-4-yl)-1,6-dihydro-7H-pyrrolo[2,3-c]pyridin-7-one]
IC50 (BRD4 BD1): > 1000 nM
IC50 (BRD4 BD2): < 10 nM
Fold Selectivity BRD4 BD1/BD2 (BRD4 BD2): xxxx (Fold >1000)

COCCOc1ccc(-c2cn(C)c(=O)cc2-c2cn(C)c(=O)c3[nH]c(-c4cnn(C(F)(F)F)c4)cc23)cc1 [Example 9, 4-(5-(4-(2-methoxyethoxy)phenyl)-1-methyl-2-oxo-1,2-dihydropyridin-4-yl)-6-methyl-2-(1-(trifluoromethyl)-1H-pyrazol-4-yl)-1,6-dihydro-7H-pyrrolo[2,3-c]pyridin-7-one]
IC50 (BRD4 BD1): > 1000 nM
IC50 (BRD4 BD2): < 10 nM
Fold Selectivity BRD4 BD1/BD2 (BRD4 BD2): xxxx (Fold >1000)

Cn1cc(-c2ccccc2)c(-c2cn(C)c(=O)c3[nH]c(-c4cnn(C(F)(F)F)c4)c(Cl)c23)cc1=O [Example 10, 3-chloro-6-methyl-4-(1-methyl-2-oxo-5-phenyl-1,2-dihydropyridin-4-yl)-2-(1-(trifluoromethyl)-1H-pyrazol-4-yl)-1,6-dihydro-7H-pyrrolo[2,3-c]pyridin-7-one]
IC50 (BRD4 BD1): > 1000 nM
IC50 (BRD4 BD2): 10 to 50 nM
Fold Selectivity BRD4 BD1/BD2 (BRD4 BD2): xxx (Fold >200 and ≤1000)

Cc1cccc(C)c1Oc1cn(C)c(=O)cc1-c1cn(C)c(=O)c2[nH]c(-c3cnn(C(F)(F)F)c3)cc12 [Example 11, 4-(5-(2,6-dimethylphenoxy)-1-methyl-2-oxo-1,2-dihydropyridin-4-yl)-6-methyl-2-(1-(trifluoromethyl)-1H-pyrazol-4-yl)-1,6-dihydro-7H-pyrrolo[2,3-c]pyridin-7-one]
IC50 (BRD4 BD1): > 1000 nM
IC50 (BRD4 BD2): < 10 nM
Fold Selectivity BRD4 BD1/BD2 (BRD4 BD2): xxxx (Fold >1000)

CCCCCCCCc1ccc(CCC(N)(CO)CO)cc1 [FTY720, reference compound]
Incidence of EAE (%) [1]: 16.7*** %
Mean Day of Onset (SEM) [1]: 18.5 (0.5) Day
Mean End Score (SEM) [1]: 0.21 (0.14)***
Mean Maximum Score (SEM) [1]: 0.33 (0.23)***
Median Day of Onset [1]: >28.0 days
Mean EAE score ([1]; Day 7): 0.00
Mean EAE score ([1]; Day 8): 0.00
Mean EAE score ([1]; Day 9): 0.00
Mean EAE score ([1]; Day 10): 0.00
Mean EAE score ([1]; Day 11): 0.00
Mean EAE score ([1]; Day 12): 0.00
Mean EAE score ([1]; Day 13): 0.00
Mean EAE score ([1]; Day 14): 0.00
Mean EAE score ([1]; Day 15): 0.00
Mean EAE score ([1]; Day 16): 0.00
Mean EAE score ([1]; Day 17): 0.00
Mean EAE score ([1]; Day 18): 0.13
Mean EAE score ([1]; Day 19): 0.25
Mean EAE score ([1]; Day 20): 0.25
Mean EAE score ([1]; Day 21): 0.29
Mean EAE score ([1]; Day 22): 0.33
Mean EAE score ([1]; Day 23): 0.29
Mean EAE score ([1]; Day 24): 0.29
Mean EAE score ([1]; Day 25): 0.21
Mean EAE score ([1]; Day 26): 0.21
Mean EAE score ([1]; Day 27): 0.21
Mean EAE score ([1]; Day 28): 0.21
Mean Body Weight (EAE study: body weight; Day 0): 20.3 g
Mean Body Weight (% of Day −1) (EAE study: body weight; Day 0): 100.7 % of Day −1
Mean Body Weight (EAE study: body weight; Day 2): 19.9 g
Mean Body Weight (% of Day −1) (EAE study: body weight; Day 2): 98.4 % of Day −1
Mean Body Weight (EAE study: body weight; Day 5): 21.2 g
Mean Body Weight (% of Day −1) (EAE study: body weight; Day 5): 105.1 % of Day −1
Mean Body Weight (EAE study: body weight; Day 7): 21.3 g
Mean Body Weight (% of Day −1) (EAE study: body weight; Day 7): 105.4 % of Day −1
Mean Body Weight (EAE study: body weight; Day 9): 21.8 g
Mean Body Weight (% of Day −1) (EAE study: body weight; Day 9): 108.2 % of Day −1
Mean Body Weight (EAE study: body weight; Day 12): 21.5 g
Mean Body Weight (% of Day −1) (EAE study: body weight; Day 12): 106.5 % of Day −1
Mean Body Weight (EAE study: body weight; Day 14): 21.6 g
Mean Body Weight (% of Day −1) (EAE study: body weight; Day 14): 107.2 % of Day −1
Mean Body Weight (EAE study: body weight; Day 16): 21.6 g
Mean Body Weight (% of Day −1) (EAE study: body weight; Day 16): 107.0 % of Day −1
Mean Body Weight (EAE study: body weight; Day 19): 21.6 g
Mean Body Weight (% of Day −1) (EAE study: body weight; Day 19): 106.9 % of Day −1
Mean Body Weight (EAE study: body weight; Day 21): 21.7 g
Mean Body Weight (% of Day −1) (EAE study: body weight; Day 21): 107.5 % of Day −1
Mean Body Weight (EAE study: body weight; Day 23): 22.0 g
Mean Body Weight (% of Day −1) (EAE study: body weight; Day 23): 109.3 % of Day −1
Mean Body Weight (EAE study: body weight; Day 27): 21.9 g
Mean Body Weight (% of Day −1) (EAE study: body weight; Day 27): 108.3 % of Day −1
Mean Body Weight (EAE study: body weight; Day 28): 22.0 g
Mean Body Weight (% of Day −1) (EAE study: body weight; Day 28): 108.9 % of Day −1
Mean Body Weight (EAE study: body weight; Day −1): 20.2 g
Mean Body Weight (% of Day −1) (EAE study: body weight; Day −1): 100.0 % of Day −1
Mean Body Weight Change (% of Day −1) (EAE study: body weight; FTY720, mean end body weight): 108.9*** % of Day −1
